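48-hour exposure; five concentrations; linearly interpolated endpoints. Abbreviation: GI50, concentration required for 50% inhibition of growth. At the TGI there is no net growth.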
How the values were obtained:
Experiment in all cases: NCI-60 cell line screen, 48 h
[1] = test system: SK-MEL-28 melanoma
[2] = test system: MCF7 breast
[3] = test system: HCT-116 colon
[4] = test system: NCI-H23 lung
[5] = test system: A498 renal
[6] = test system: HS 578T breast
[7] = test system: SNB-19 CNS
[8] = test system: NCI-H226 lung
[9] = test system: M14 melanoma
[10] = test system: HT29 colon
[11] = test system: IGROV1 ovarian
[12] = test system: MDA-MB-435
[13] = test system: SK-MEL-2 melanoma
[14] = test system: CCRF-CEM leukemia
[15] = test system: RPMI-8226 leukemia
[16] = test system: LOX IMVI melanoma
[17] = test system: DU-145 prostate
[18] = test system: UACC-257 melanoma
[19] = test system: HL-60(TB) leukemia
[20] = test system: PC-3 prostate
[21] = test system: SF-539 CNS
[22] = test system: CAKI-1 renal
[23] = test system: U251 CNS
[24] = test system: KM12 colon
[25] = test system: K-562 leukemia
[26] = test system: ACHN renal
[27] = test system: 786-0 renal
[28] = test system: HOP-62 NSCLC
[29] = test system: SK-MEL-5 melanoma
[30] = test system: SN12C renal
[31] = test system: OVCAR-5 ovarian
[32] = test system: RXF 393 renal
[33] = test system: MDA-MB-468 breast
[34] = test system: SNB-75 CNS
[35] = test system: BT-549 breast
[36] = test system: OVCAR-4 ovarian
[37] = test system: HCT-15 colon
[38] = test system: UO-31 renal
[39] = test system: NCI/ADR-RES ovarian
[40] = test system: SW-620 colon
[41] = test system: OVCAR-3 ovarian
[42] = test system: EKVX NSCLC
[43] = test system: HOP-92 NSCLC
[44] = test system: TK-10 renal
[45] = test system: MDA-MB-231 breast
[46] = test system: NCI-H460 lung
[47] = test system: COLO 205 colon
[48] = test system: A549 NSCLC
[49] = test system: SF-295 CNS
[50] = test system: HCC-2998 colon
[51] = test system: UACC-62 melanoma
[52] = test system: MALME-3M melanoma
[53] = test system: T-47D breast
[54] = test system: SF-268 CNS
[55] = test system: NCI-H522 lung
[56] = test system: MOLT-4 leukemia
[57] = test system: OVCAR-8 ovarian
[58] = test system: SK-OV-3 ovarian

Compound `FC(F)(F)CN1CCN(CCn2c(C(F)(F)F)cc3c(Cl)ncnc32)CC1` has a GI50 [1] of 8.13 µM, a TGI [1] of 37.4 µM and a GI50 [2] of 10 µM. The TGI [2] was 42.6 µM, the GI50 [3] was 3.16 µM and the TGI [3] was 13.3 µM. The GI50 [4] was 5.84 µM, the TGI [4] was 26.6 µM and the GI50 [5] was 21.3 µM. It also gave a TGI [5] of 57.4 µM, a GI50 [6] of 14.2 µM and a TGI [6] of 59.8 µM. For the same compound, the GI50 [7] was 13.2 µM, the TGI [7] was 26.8 µM and the GI50 [8] was 17.4 µM. The TGI [8] was 72.8 µM, the GI50 [9] was 6.19 µM and the TGI [9] was 23.1 µM. It also gave a GI50 [10] of 5.46 µM, a TGI [10] of 36.6 µM and a GI50 [11] of 1.78 µM. For the same compound, the TGI [11] was 3.54 µM, the GI50 [12] was 5.5 µM and the TGI [12] was 19.5 µM. It also gave a GI50 [13] of 15.7 µM, a TGI [13] of 30.9 µM and a GI50 [14] of 4.37 µM. The TGI [14] was greater than 100 µM, the GI50 [15] was 23.7 µM and the TGI [15] was 77.4 µM. For the same compound, the GI50 [16] was 1.68 µM, the TGI [16] was 3.1 µM and the GI50 [17] was 12.5 µM. For the same compound, the TGI [17] was 32.8 µM, the GI50 [18] was 4.09 µM and the TGI [18] was 16.9 µM. For the same compound, the GI50 [19] was 2.75 µM, the TGI [19] was 8.18 µM and the GI50 [20] was 3.53 µM. For the same compound, the TGI [20] was 12 µM, the GI50 [21] was 12.6 µM and the TGI [21] was 28.7 µM. For the same compound, the GI50 [22] was 13.6 µM, the TGI [22] was 30.6 µM and the GI50 [23] was 2.4 µM. The TGI [23] was 6.43 µM, the GI50 [24] was 17.9 µM and the TGI [24] was 39.9 µM. For the same compound, the GI50 [25] was 2.8 µM, the TGI [25] was greater than 100 µM and the GI50 [26] was 12.3 µM. The TGI [26] was greater than 100 µM, the GI50 [27] was 22.3 µM and the TGI [27] was 60.7 µM. The GI50 [28] was 13.8 µM, the TGI [28] was 32.5 µM and the GI50 [29] was 3.73 µM. For the same compound, the TGI [29] was 13.7 µM, the GI50 [30] was 7.75 µM and the TGI [30] was 23.1 µM. It also gave a GI50 [31] greater than 100 µM, a TGI [31] greater than 100 µM and a GI50 [32] of 11 µM. It also gave a TGI [32] of 28.1 µM, a GI50 [33] of 2.19 µM and a TGI [33] of 4.94 µM. For the same compound, the GI50 [34] was 3.11 µM, the TGI [34] was 14.2 µM and the GI50 [35] was 13 µM. For the same compound, the TGI [35] was 26.8 µM, the GI50 [36] was 26.8 µM and the TGI [36] was greater than 100 µM. For the same compound, the GI50 [37] was 2.55 µM, the TGI [37] was 7.37 µM and the GI50 [38] was 1.63 µM. For the same compound, the TGI [38] was 3.27 µM, the GI50 [39] was 19 µM and the TGI [39] was 46.6 µM. The GI50 [40] was 4.86 µM, the TGI [40] was 19.5 µM and the GI50 [41] was 14.3 µM. The TGI [41] was 34.4 µM, the GI50 [42] was 11.6 µM and the TGI [42] was 40.4 µM. The GI50 [43] was 12.9 µM, the TGI [43] was 29.2 µM and the GI50 [44] was 35.5 µM. The TGI [44] was greater than 100 µM, the GI50 [45] was 1.76 µM and the TGI [45] was 4.28 µM. The GI50 [46] was 2.66 µM, the TGI [46] was 6.73 µM and the GI50 [47] was 18.4 µM. For the same compound, the TGI [47] was 46.2 µM, the GI50 [48] was 52.9 µM and the TGI [48] was greater than 100 µM. It also gave a GI50 [49] of 10.3 µM, a TGI [49] of 25.9 µM and a GI50 [50] of 1.83 µM. For the same compound, the TGI [50] was 3.28 µM, the GI50 [51] was 4.69 µM and the TGI [51] was 18.1 µM. The GI50 [52] was 14.5 µM, the TGI [52] was 32 µM and the GI50 [53] was 17.3 µM. For the same compound, the TGI [53] was 63.7 µM, the GI50 [54] was 5.2 µM and the TGI [54] was 21.4 µM. The GI50 [55] was 1.7 µM, the TGI [55] was 3.52 µM and the GI50 [56] was 2.4 µM. The TGI [56] was 9.2 µM, the GI50 [57] was 3.2 µM and the TGI [57] was 11.7 µM. It also gave a GI50 [58] of 16.2 µM and a TGI [58] of 43.2 µM.
